In patent US8431596B2 (Cancer Research Technology Limited, priority 2007, dated 2013):

Target: T1, AXL (human catalytic domain) (Homo sapiens, UniProt P30530)
T1 construct: purchased Upstate Ltd. 14-512
T1 sequence (P30530 473-894): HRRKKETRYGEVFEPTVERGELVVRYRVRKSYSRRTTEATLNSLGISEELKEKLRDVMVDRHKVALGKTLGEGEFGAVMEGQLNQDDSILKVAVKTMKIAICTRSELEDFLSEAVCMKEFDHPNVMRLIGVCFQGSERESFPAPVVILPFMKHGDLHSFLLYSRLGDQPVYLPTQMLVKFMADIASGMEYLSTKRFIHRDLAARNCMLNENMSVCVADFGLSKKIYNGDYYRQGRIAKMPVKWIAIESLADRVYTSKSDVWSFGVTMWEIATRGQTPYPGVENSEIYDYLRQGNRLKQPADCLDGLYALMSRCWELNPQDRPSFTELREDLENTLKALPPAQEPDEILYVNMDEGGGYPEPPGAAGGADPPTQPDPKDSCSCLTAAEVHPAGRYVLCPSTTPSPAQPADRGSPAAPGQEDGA
Test: AXL (human catalytic domain) Enzyme Activity Assay (IMAP fluorescence polarisation)
Type: biochemical
Conditions: further data set (WW-001 through WW-169, XX-001 through XX-469, YY-001 through YY-016, ZZ-001 through ZZ-003); 150 μM ATP
Procedure, shortened: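 IMAP FP readout (Ex485/Em535, after overnight binding) measured inhibition of the human AXL catalytic domain (aa473-894, 15 nM final) acting on 100 nM 5FAM-CSK-tide at 150 μM ATP, equal to KM. Reactions ran 60 min at room temperature in pH 7.0 HEPES buffer; IC50 from 10-point curves.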

SMILES: CC(CNc1ccc(Nc2nc3cccc(-c4ccc5c(c4)OCCO5)n3n2)cc1)N1CCCC1 (centres unmarked) [XX-139]
- IC50: ≤ 100 nM

SMILES: CC(CNc1cccc(Nc2nc3cccc(-c4ccc5c(c4)OCCO5)n3n2)c1)N1CCCC1 (centres unmarked) [XX-140]
- IC50: 100 to 1000 nM

SMILES: C[C@@H](CN)Oc1ccc(Nc2nc3cccc(-c4ccc5c(c4)OCCO5)n3n2)cc1 [XX-141]
- IC50: 100 to 1000 nM

SMILES: C[C@H](CN)Oc1ccc(Nc2nc3cccc(-c4ccc5c(c4)OCCO5)n3n2)cc1 [XX-142]
- IC50: 100 to 1000 nM

SMILES: C[C@H](N)COc1ccc(Nc2nc3cccc(-c4ccc5c(c4)OCCO5)n3n2)cc1 [XX-143, [4-((S)-2-Amino-propoxy)-phenyl]-[5-(2,3-dihydro-benzo[1,4]dioxin-6-yl)-[1,2,4]triazolo[1,5-a]pyridin-2-yl]-amine]
- IC50: 100 to 1000 nM

SMILES: NCCNS(=O)(=O)c1ccc(Nc2nc3cccc(-c4ccc5c(c4)OCCO5)n3n2)cc1 [XX-144]
- IC50: 100 to 1000 nM

SMILES: O=S(=O)(c1ccc(Nc2nc3cccc(-c4ccc5c(c4)OCCO5)n3n2)cc1)N1CCNCC1 [XX-145]
- IC50: 100 to 1000 nM

SMILES: c1cc(-c2ccc(OCC3CCCO3)cc2)n2nc(Nc3ccc(OCCN4CCCC4)cc3)nc2c1 (centres unmarked) [XX-146]
- IC50: 100 to 1000 nM

SMILES: CCN(CC)CCOc1cccc(Nc2nc3cccc(-c4ccc(N(C)C)c(C)c4)n3n2)c1 [XX-147]
- IC50: 100 to 1000 nM

SMILES: C#CCOc1ccc(-c2cccc3nc(Nc4ccc(OCCN5CCCC5)cc4)nn23)cc1 [XX-148]
- IC50: 100 to 1000 nM

SMILES: Cn1cc(-c2ccc(-c3cccc4nc(Nc5ccc(OCCN6CCCC6)cc5)nn34)cc2)cn1 [XX-149]
- IC50: 100 to 1000 nM

SMILES: COc1cccc(-c2cccc3nc(Nc4ccc(OCCN5CCCC5)cc4)nn23)c1 [XX-150]
- IC50: 1000 to 10000 nM

SMILES: Oc1ccc(-c2cccc3nc(Nc4ccc(OCCN5CCCC5)cc4)nn23)cc1 [XX-151]
- IC50: 100 to 1000 nM

SMILES: c1cc(NC2CCCC2)n2nc(Nc3ccc(OCCN4CCCC4)cc3)nc2c1 [XX-152, N*5*-Cyclopentyl-N*2*-[4-(2-pyrrolidin-1-yl-ethoxy)-phenyl]-[1,2,4]triazolo[1,5-a]pyridine-2,5-diamine]
- IC50: 1000 to 10000 nM

SMILES: CN(C(=O)CN1CCCC1)c1ccc(Nc2nc3cccc(-c4ccc5c(c4)OCCO5)n3n2)cc1 [XX-153]
- IC50: ≤ 100 nM

SMILES: CN(CCN1CCCC1)c1ccc(Nc2nc3cccc(-c4ccc5c(c4)OCCO5)n3n2)cc1 [XX-154]
- IC50: ≤ 100 nM

SMILES: C[C@H](CN(C)C)Oc1ccc(Nc2nc3cccc(-c4ccc5c(c4)OCCO5)n3n2)cc1 [XX-155]
- IC50: 100 to 1000 nM

SMILES: CC(C)(C)OC(=O)Nc1cccc(-c2cccc3nc(Nc4ccc(OCCN5CCCC5)cc4)nn23)c1 [XX-156]
- IC50: 1000 to 10000 nM

SMILES: F[C@H]1CCN(CCOc2ccc(Nc3nc4cccc(-c5ccc6c(c5)OCCO6)n4n3)cc2)C1 [XX-157]
- IC50: 100 to 1000 nM

SMILES: FC1(F)CCN(CCOc2ccc(Nc3nc4cccc(-c5ccc6c(c5)OCCO6)n4n3)cc2)C1 [XX-158]
- IC50: 1000 to 10000 nM

SMILES: c1ccc(-c2cccc3nc(Nc4ccc(OCCN5CCCC5)cc4)nn23)cc1 [XX-159]
- IC50: 100 to 1000 nM

SMILES: O=C(CSc1ccc(Nc2nc3cccc(-c4ccc5c(c4)OCCO5)n3n2)cc1)N1CCCC1 [XX-160]
- IC50: 1000 to 10000 nM

SMILES: CC(Sc1ccc(Nc2nc3cccc(-c4ccc5c(c4)OCCO5)n3n2)cc1)C(N)=O (centres unmarked) [XX-161]
- IC50: 100 to 1000 nM

SMILES: CCN(CC)CCOc1ccc(Nc2nc3cccc(-c4ccc5c(c4)OCCO5)n3n2)cn1 [XX-162]
- IC50: ≤ 100 nM

SMILES: CCN(CC)CCOc1cc(Nc2nc3cccc(-c4ccc5c(c4)OCCO5)n3n2)ccn1 [XX-163]
- IC50: ≤ 100 nM

SMILES: c1ccc(-c2cccc(-c3cccc4nc(Nc5ccc(OCCN6CCCC6)cc5)nn34)c2)cc1 [XX-164, (5-Biphenyl-3-yl-[1,2,4]triazolo[1,5-a]pyridin-2-yl)-[4-(2-pyrrolidin-1-yl-ethoxy)-phenyl]-amine]
- IC50: 100 to 1000 nM

SMILES: c1cc(-c2ccoc2)cc(-c2cccc3nc(Nc4ccc(OCCN5CCCC5)cc4)nn23)c1 [XX-165]
- IC50: 100 to 1000 nM

SMILES: c1cc(-c2ccsc2)cc(-c2cccc3nc(Nc4ccc(OCCN5CCCC5)cc4)nn23)c1 [XX-166]
- IC50: 100 to 1000 nM

SMILES: c1cc(-c2cn[nH]c2)cc(-c2cccc3nc(Nc4ccc(OCCN5CCCC5)cc4)nn23)c1 [XX-167]
- IC50: ≤ 100 nM

SMILES: c1cc(-c2ccco2)cc(-c2cccc3nc(Nc4ccc(OCCN5CCCC5)cc4)nn23)c1 [XX-168]
- IC50: 100 to 1000 nM

SMILES: Cn1nccc1-c1cccc(-c2cccc3nc(Nc4ccc(OCCN5CCCC5)cc4)nn23)c1 [XX-169]
- IC50: 100 to 1000 nM

SMILES: Cc1nn(C)c(C)c1-c1cccc(-c2cccc3nc(Nc4ccc(OCCN5CCCC5)cc4)nn23)c1 [XX-170]
- IC50: 100 to 1000 nM

SMILES: Cn1cc(-c2cccc(-c3cccc4nc(Nc5ccc(OCCN6CCCC6)cc5)nn34)c2)cn1 [XX-171]
- IC50: 100 to 1000 nM

SMILES: CCn1cc(-c2cccc(-c3cccc4nc(Nc5ccc(OCCN6CCCC6)cc5)nn34)c2)cn1 [XX-172]
- IC50: 100 to 1000 nM

SMILES: CCN(CC)CCNS(=O)(=O)c1ccc(Nc2nc3cccc(-c4ccc5c(c4)OCCO5)n3n2)cc1 [XX-173]
- IC50: 100 to 1000 nM

SMILES: O=C(Nc1ccccc1)Nc1cccc(-c2cccc3nc(Nc4ccc(OCCN5CCCC5)cc4)nn23)c1 [XX-174, 1-Phenyl-3-(3-{2-[4-(2-pyrrolidin-1-yl-ethoxy)-phenylamino]-[1,2,4]triazolo[1,5-a]pyridin-5-yl}-phenyl)-urea]
- IC50: 100 to 1000 nM

SMILES: c1cc(OCC2CCCO2)cc(-c2cccc3nc(Nc4ccc(OCCN5CCCC5)cc4)nn23)c1 (centres unmarked) [XX-175, [4-(2-Pyrrolidin-1-yl-ethoxy)-phenyl]-{5-[3-(tetrahydro-furan-2-ylmethoxy)-phenyl]-[1,2,4]triazolo[1,5-a]pyridin-2-yl}-amine]
- IC50: 100 to 1000 nM

SMILES: O=C(Nc1cccc(Cl)c1)Nc1cccc(-c2cccc3nc(Nc4ccc(OCCN5CCCC5)cc4)nn23)c1 [XX-176]
- IC50: 100 to 1000 nM

SMILES: O=C(Nc1cccc(-c2cccc3nc(Nc4ccc(OCCN5CCCC5)cc4)nn23)c1)c1cccc(Cl)c1 [XX-177]
- IC50: 100 to 1000 nM

SMILES: O=C(Nc1cccc(-c2cccc3nc(Nc4ccc(OCCN5CCCC5)cc4)nn23)c1)C1CC1 [XX-178]
- IC50: 100 to 1000 nM

SMILES: O=C(Nc1cccc(-c2cccc3nc(Nc4ccc(OCCN5CCCC5)cc4)nn23)c1)c1ccccc1 [XX-179]
- IC50: 100 to 1000 nM

SMILES: O=C(Nc1cccc(-c2cccc3nc(Nc4ccc(OCCN5CCCC5)cc4)nn23)c1)c1cccnc1 [XX-180]
- IC50: 100 to 1000 nM

SMILES: O=C(Nc1cccc(-c2cccc3nc(Nc4ccc(OCCN5CCCC5)cc4)nn23)c1)c1ccco1 [XX-181]
- IC50: 100 to 1000 nM

SMILES: O=C(Nc1cccc(-c2cccc3nc(Nc4ccc(OCCN5CCCC5)cc4)nn23)c1)c1ccc2nonc2c1 [XX-182]
- IC50: 100 to 1000 nM

SMILES: NC(=O)c1cccc(-c2cccc3nc(Nc4ccc(OCCN5CCCC5)cc4)nn23)c1 [XX-183]
- IC50: 1000 to 10000 nM

SMILES: Nc1ccc(-c2cccc3nc(Nc4ccc(OCCN5CCCC5)cc4)nn23)cc1 [XX-184]
- IC50: 100 to 1000 nM

SMILES: c1cc(-c2ccc(-c3ccoc3)cc2)n2nc(Nc3ccc(OCCN4CCCC4)cc3)nc2c1 [XX-185]
- IC50: 100 to 1000 nM

SMILES: c1cc(-c2ccc(-c3ccsc3)cc2)n2nc(Nc3ccc(OCCN4CCCC4)cc3)nc2c1 [XX-186]
- IC50: 100 to 1000 nM

SMILES: c1cc(-c2ccc(-c3cn[nH]c3)cc2)n2nc(Nc3ccc(OCCN4CCCC4)cc3)nc2c1 [XX-187]
- IC50: 100 to 1000 nM

SMILES: c1coc(-c2ccc(-c3cccc4nc(Nc5ccc(OCCN6CCCC6)cc5)nn34)cc2)c1 [XX-188]
- IC50: 100 to 1000 nM

SMILES: Cn1nccc1-c1ccc(-c2cccc3nc(Nc4ccc(OCCN5CCCC5)cc4)nn23)cc1 [XX-189]
- IC50: 100 to 1000 nM

SMILES: Cc1noc(C)c1-c1ccc(-c2cccc3nc(Nc4ccc(OCCN5CCCC5)cc4)nn23)cc1 [XX-190]
- IC50: 100 to 1000 nM

SMILES: CCn1cc(-c2ccc(-c3cccc4nc(Nc5ccc(OCCN6CCCC6)cc5)nn34)cc2)cn1 [XX-191]
- IC50: 100 to 1000 nM
